Converted amounts (≈) assume the structure as drawn. *1 amine or outer side, *2 acyl side, *3 side chain or, on linkers, in order; H or OH if unused. Where a SMILES comes first, the peptide text is derived from it. Bridges are numbered along the chain shown (N, C = ends). [ ]: non-standard residue; d: D form. The star is where a group is joined. Suc = O=C(CCC(=O)[*:2])[*:1]; X3 = CC(=O)NCCCOCCOCCOCCCN*
How the values were obtained:
Plasma stability = conditions: human
physchem = conditions: pH 7.4
[1] = tested on: human FVIII inhibited plasma; experiment: Defined Intrinsic Thrombin Generation Assay (DITGA, triggered by FXIa and phospholipids); type: biochemical; conditions: for Activity in the Defined Intrinsic Thrombin Generation Assay: summary
Text: (§1) The intrinsic pathway of thrombin generation may be assayed in a thrombin generation assay by including FXIa and phospholipids. In such an assay, which is similar to an activated partial thromboplastin time (aPTT) test, thrombin generation is solely directed through the intrinsic pathway, and is FVIII dependent. A suitable assay is the Defined Intrinsic Thrombin Generation Assay described below. Alternatively, by employing low concentrations of TF and phospholipids instead of FXIa and phospholipids, thrombin is generated by both the extrinsic (tissue factor) and the intrinsic pathways. This form of the thrombin generation assay is the more physiologic one, as both thrombin generation pathways are involved; it is partially FVIII dependent. A suitable assay is the Defined Dual-Pathway Thrombin Generation Assay.
The Defined Intrinsic Thrombin Generation Assay is performed as follows. FVIII activity of human plasma is inhibited by incubating (2 hours, 37° C.) 40 μl of human normal plasma with 10 μl heat inactivated anti-human FVIII plasma raised in goat (600 BU/ml, 6 hours incubated at 56° C.). […] Instead of FVIII-inhibited plasma, FVIII inhibitor patient plasma or several depleted plasmas can be used. The micro-plate is immediately put into a GENios Plus (Tecan) or Safire 2 (Tecan) fluorescence reader and the fluorescence signal (ex 340 nm/em 440 nm) is followed kinetically by reading the plate every 21 seconds.
For calculation of activity equivalent units experiments are performed with dilutions of Factor Eight Inhibitor Bypassing Agent (FEIBA, Baxter AG), Immunate (human FVIII, purified plasma derived) reference standard (Baxter AG) or Recombinate standard (human FVIII, purified recombinant, Baxter AG). A linear fit of the logarithm of FEIBA (FVIII) concentration plotted against thrombin generation time at peak thrombin results in a standard curve. With this curve FEIBA (FVIII) equivalent activity is calculated for a defined peptide concentration. […] Thus, where a concentration of 100 μM is given, the actual concentration in the final assay volume in 40 μM.
Compounds were screened using the “Defined intrinsic thrombin generation assay” in which thrombin generation was quantified in vitro in FVIII-inhibited human plasma in the presence of Factor XIa and phospholipid vesicles. Further compounds were screened in the above assay, and in the “Defined dual-pathway thrombin generation assay” using tissue factor and phospholipids instead of Factor XIa and phospholipids, as described in the specific description.
Various concentrations of each peptide were tested in the defined intrinsic thrombin generation assay using human FVIII inhibited plasma.

FIX−/− mice = experiment: Tail clip assay in FIX−/− mice (blood loss, survival); type: in vivo, mouse; conditions: for Survival (%) 2 hours / Survival (%) 4 hours / Survival (%) 24 hours / Survival (%) 48 hours: FIX−/− mice, tail clip
FVIII inhibited plasma = experiment: Defined Dual-Pathway Thrombin Generation Assay (DDPTGA, reagent C high), FVIII inhibited plasma; type: biochemical, human; conditions: for Peak IIa FEIBA EU / Peak IIa FVIIa EU / Peak Time FEIBA EU / Peak Time FVIIa EU: FVIII inhibited plasma
Text: as §1
(§2) Preferably, Reagent C high is used.
(§3) Tissue factor dependency of peak thrombin generation and thrombin peak time was characterised in a composition containing a fixed concentration of phospholipid (namely 3.2 μM). Phospholipid dependency was characterised in a composition containing a fixed concentration of tissue factor (namely 7.2 μM). Peak time (time to peak thrombin generation) was dependent on the concentration of phospholipid or tissue factor. The final version of this assay is as described in the specific description, in which 10 μl reagent C high containing (32 μM phospholipid and 71.6 μM tissue factor) is used in a total volume of 100 μl.
(§4) Further studies were conducted using 3.2 μM phospholipid and 7.2 μM tissue factor in FVIII deficient or inhibited plasma, to characterise the effect on peak thrombin generation and thrombin peak time of various coagulation factor preparations. These studies provided a basis from which to compare the efficacy of the compounds in the assay. Briefly, rFVIII (Recombinate® FVIII from Baxter) was tested at 0, 5, 10, 20, 40 and 80 mU/ml in FVIII deficient plasma. FEIBA was tested at 0, 8, 16, 31, 63 and 125 mU/ml in FVIII inhibited plasma. FVIIa was tested at 0, 0.1, 0.4, 1.6, 6.3 and 25 nM in FVIII inhibited plasma. […] Peak thrombin increased and both the lag time and the thrombin peak time decrease.

[2] = tested on: FVIII-inhibited human normal plasma; experiment: Defined Fibrin Deposition Assay (clotting time); type: biochemical
Procedure: Another suitable assay to determine procoagulant activity, and particularly FVIII equivalent activity or FVIII inhibitor bypassing activity, is the Defined Fibrin Deposition Assay as described below. […] This assay is particularly useful for determining coagulation FVIII activity because it is conducted in the presence of FVIII-depleted or inhibited plasma.
The Defined Fibrin Deposition Assay is performed as follows. FVIII activity of human citrated plasma (Baxter AG) is first inhibited by incubating (2 hours, 37° C.) 100 μl of human normal plasma with 25 μl heat inactivated anti-human FVIII plasma (300 BU/ml, 6 hours incubated at 56° C.) raised in goat. For each sample to be tested, 125 μl of this FVIII-inhibited human normal plasma is transferred to a pre-warmed cuvette and a 75 μl dilution of a test compound or FEIBA reference standard (Baxter AG) is added. The dilutions of test compound or FEIBA reference standard contain 50 mM imidazole, 100 mM NaCl and 10 mg/ml human serum albumin (Sigma) pH 7.4. As a trigger and for providing procoagulant surfaces 100 μl of a mix of human factor XIa (3.13 nM, Enzyme Research Laboratories) and phospholipid (PL) vesicles (Phosphatidylcholine/Phosphatidylserine 60%/40%, 30 μM; Avanti Polar Lipids) in 50 mM Imidazole, 100 mM NaCl, 10 mg/ml human serum albumin (Sigma) pH 7.4 is included. After incubating for three minutes at 37° C. the coagulation reaction is started by adding 100 μl of 25 mM CaCl2. Clot formation is monitored by a coagulometer (KC10A, Amelung, Germany). In brief, each cuvette rotates slowly above the magnetic detection device and contains a small magnetic metallic ball. Whilst the plasma components remain in solution, the ball sits at the bottom of the cuvette. Over time, a clot begins to form, such that the ball starts to rotate with the developing clot in the rotating cuvette. The “clotting time” is recorded and is defined as the time from addition of the CaCl2) to the time that the developing clot begins to rotate the metallic ball. A standard curve for FEIBA reference standard dilutions is calculated by linear regression of logarithmic FEIBA concentrations (x-axis) against the clotting time (y-axis). Based on the clotting time of each compound concentration FEIBA equivalent activities are calculated according to this standard curve.
Thus, where a concentration of 100 μM is given, the actual concentration in the final assay volume in 25 μM.
Various peptides were tested for the ability to stimulate fibrin deposition in the Defined Fibrin Deposition Assay as described in the specific description.

[3] = tested on: Factor XI deficient human plasma; experiment: DDPTGA (reagent B) in FXI depleted plasma; conditions: compounds at 50 μM and 80, 90 or 100 μM
Procedure: (§5) The Defined Dual-Pathway Thrombin Generation Assay is performed as described below, using a commercial test kit (Technothrombin TGA, Technoclone GmbH, Vienna, Austria). […] USA) are incubated four minutes at 37° C. Preferably, Reagent C high is used. Thrombin generation is started by the addition of 40 μl of one of several types of human plasma (37° C.). […] By deviating the original fluorescence data the amount of generated thrombin is calculated from a standard curve constructed using a concentration range of thrombin.
(§6) The in vitro thrombin generation assay based on the cleavage of Z-GGR-AMC to release the fluorophore AMC, described in the specific description, i.e. the Defined Dual-Pathway Thrombin Generation Assay was used to characterise the effect of the compounds in several depleted human plasmas. […] 10 μl peptide dilution, 40 μl TGA substrate and 40 μl plasma were used as described in the specific description.
(§7) The plasmas used in the experiments were fresh frozen and were deficient in Factor V, Factor VII/VIIa, Factor VIII, Factor X or Factor XI (George King Bio-Medical, Inc.). Residual coagulation factor levels of deficient plasmas were specified as less than 1%.
(§8) For each depleted plasma used in the experiments, compounds were tested at two concentrations, namely 50 μM and 80, 90 or 100 μM. A negative control was used, in which no test compound was included.

[4] = tested on: Factor X deficient human plasma; experiment: DDPTGA (reagent B) in FX depleted plasma; conditions: compounds at 50 μM and 80, 90 or 100 μM
Procedure: as §5, §6, §7, §8

[5] = tested on: Factor VII/VIIa deficient human plasma; experiment: DDPTGA (reagent B) in FVII depleted plasma; conditions: compounds at 50 μM and 80, 90 or 100 μM
Procedure: as §5, §6, §7, §8

[6] = tested on: Factor VIII deficient human plasma; experiment: DDPTGA (reagent B) in FVIII depleted plasma; type: biochemical; conditions: compounds at 50 μM and 80, 90 or 100 μM; further: key: '+' means stimulates; '−' means does not stimulate
Text: as §2

FVIII deficient plasma = experiment: Defined Dual-Pathway Thrombin Generation Assay (DDPTGA, reagent C high), FVIII deficient plasma; type: biochemical, human; conditions: FVIII deficient plasma
Text: as §1, §2, §3, §4

[7] = tested on: Factor V deficient human plasma; experiment: DDPTGA (reagent B) in FV depleted plasma; conditions: compounds at 50 μM and 80, 90 or 100 μM
Procedure: as §5, §6, §7, §8

CSCC[C@H]1NC(=O)[C@@H](Cc2ccc(O)cc2)NC(=O)[C@H](NC(=O)CCC(=O)NCCCOCCOCCOCCCNC(C)=O)CSSC[C@H](C(=O)N[C@H](Cc2ccc(O)cc2)C(=O)N[C@H](CCC(=O)O)C(N)=O)NC(=O)[C@@H](CC(=O)O)NC(=O)[C@@H](Cc2ccc(O)cc2)NC(=O)[C@@H](Cc2c[nH]c3ccccc23)NC(=O)[C@@H](Cc2ccccc2)NC1=O [Peptide B05, Ac-TTDS-(cymfwydc)-ye-NH2] ({X3-Suc}-[dC][dY][dM][dF][dW][dY][dD][dC][dY][dE]-NH2; disulfide 1-8)
remaining at 0.5 h, 5 μM (Plasma stability): 112% | solubility kinetic (physchem): 174 µM (≈ 307 µg/mL) | Thrombin peak time given as FEIBA equivalent activity ([1]; peptide 12.5 μM): 126 mU/ml | Thrombin peak time given as FEIBA equivalent activity ([1]; peptide 25 μM): 152 mU/ml | Thrombin peak time given as FEIBA equivalent activity ([1]; peptide 50 μM): 270 mU/ml | Thrombin peak time given as FEIBA equivalent activity ([1]; peptide 100 μM): 649 mU/ml | Thrombin peak time given as FEIBA equivalent activity ([1]; peptide 200 μM): 1089 mU/ml | Activity in the Defined Intrinsic Thrombin Generation Assay [1]: possess activity

CC[C@@H](C)[C@@H](NC(=O)[C@@H](CO)NC(C)=O)C(=O)N[C@H](CCSC)C(=O)N[C@H](Cc1ccccc1)C(=O)N[C@H](Cc1c[nH]c2ccccc12)C(=O)N[C@H](Cc1ccc(O)cc1)C(=O)N[C@H](CC(=O)O)C(=O)N[C@H](CCC(=O)O)C(=O)N[C@H](Cc1ccc(O)cc1)C(=O)N[C@H](CCC(=O)O)C(N)=O [Peptide B07, Ac-simfwydeye-NH2] (Ac-[dS][dI][dM][dF][dW][dY][dD][dE][dY][dE]-NH2)
remaining at 0.5 h, 5 μM (Plasma stability): 89% | solubility kinetic (physchem): 195 µM (≈ 278 µg/mL) | Activity in the Defined Intrinsic Thrombin Generation Assay [1]: possess activity

Immunine: purified plasma FIX preparation (Baxter AG. Austria)
Blood loss over the 62 minutes after tail clip (FIX−/− mice; 50, 100 or 200 U/kg i.v.): dose-dependent reduction | Bleeding parameters and survival (FIX−/− mice; 50-200 U/kg): dose dependently improves | Survival (%) 2 hours (FIX−/− mice; 50 U/kg i.v.): 94% | Survival (%) 4 hours (FIX−/− mice; 50 U/kg i.v.): 69% | Survival (%) 24 hours (FIX−/− mice; 50 U/kg i.v.): 63% | Survival (%) 48 hours (FIX−/− mice; 50 U/kg i.v.): 63% | Survival (%) 2 hours (FIX−/− mice; 100 U/kg i.v.): 100% | Survival (%) 4 hours (FIX−/− mice; 100 U/kg i.v.): 100% | Survival (%) 24 hours (FIX−/− mice; 100 U/kg i.v.): 94% | Survival (%) 48 hours (FIX−/− mice; 100 U/kg i.v.): 94% | Survival (%) 2 hours (FIX−/− mice; 200 U/kg i.v.): 100% | Survival (%) 4 hours (FIX−/− mice; 200 U/kg i.v.): 100% | Survival (%) 24 hours (FIX−/− mice; 200 U/kg i.v.): 100% | Survival (%) 48 hours (FIX−/− mice; 200 U/kg i.v.): 100%

Ac-WDLYFEIVW-ttds-E [Peptide A07]
Peak IIa FEIBA EU (FVIII inhibited plasma; peptide 50 μM): BLS (BLS = below lowest standard.) | Peak IIa FVIIa EU (FVIII inhibited plasma; peptide 50 μM): BLS (BLS = below lowest standard.) | Peak Time FEIBA EU (FVIII inhibited plasma; peptide 50 μM): BLS (BLS = below lowest standard.) | Peak Time FVIIa EU (FVIII inhibited plasma; peptide 50 μM): BLS (BLS = below lowest standard.) | Peak IIa FEIBA EU (FVIII inhibited plasma; peptide 100 μM): BLS (BLS = below lowest standard.) | Peak IIa FVIIa EU (FVIII inhibited plasma; peptide 100 μM): 0.1 nM | Peak Time FEIBA EU (FVIII inhibited plasma; peptide 100 μM): BLS (BLS = below lowest standard.) | Peak Time FVIIa EU (FVIII inhibited plasma; peptide 100 μM): BLS (BLS = below lowest standard.) | Activity in the Defined Dual-Pathway Thrombin Generation Assay (FVIII inhibited plasma; summary, FVIII inhibited or deficient plasma): possess activity | FEIBA EU (from clotting time) ([2]; compound 12.5 μM): 268 mU/ml | FEIBA EU (from clotting time) ([2]; compound 25 μM): 246 mU/ml | FEIBA EU (from clotting time) ([2]; compound 50 μM): 199 mU/ml | Activity in the Defined Fibrin Deposition Assay ([2]; summary): possess activity | Stimulation of thrombin generation [3]: + | Stimulation of thrombin generation [4]: + | Stimulation of thrombin generation [5]: + | Stimulation of thrombin generation [6]: + | Peak IIa FVIII EU (FVIII deficient plasma; peptide 50 μM): BLS (BLS = below lowest standard.) | Peak Time FVIII EU (FVIII deficient plasma; peptide 50 μM): BLS (BLS = below lowest standard.) | Peak IIa FVIII EU (FVIII deficient plasma; peptide 100 μM): BLS (BLS = below lowest standard.) | Peak Time FVIII EU (FVIII deficient plasma; peptide 100 μM): BLS (BLS = below lowest standard.) | Thrombin peak time given as FEIBA equivalent activity ([1]; peptide 6.25 μM): 415 mU/ml | Thrombin peak time given as FEIBA equivalent activity ([1]; peptide 12.5 μM): 585 mU/ml | Thrombin peak time given as FEIBA equivalent activity ([1]; peptide 25 μM): 750 mU/ml | Thrombin peak time given as FEIBA equivalent activity ([1]; peptide 50 μM): 965 mU/ml | Thrombin peak time given as FEIBA equivalent activity ([1]; peptide 100 μM): 1129 mU/ml | Activity in the Defined Intrinsic Thrombin Generation Assay [1]: possess activity | Stimulation of thrombin generation [7]: −

Source: US10822376B2, “Biologically active peptides” (Baxalta Incorporated, priority 2008, dated 2020)
